Experimental data reported in patent US5550110A, “Endothelin Antagonists II” (Warner-Lambert Company, priority 1994, dated 1996).
Peptide text beside a SMILES is read from it.

Assays:
[1] = tested on: endothelin receptor (ETA), rabbit renal artery vascular smooth muscle cells; experiment: Endothelin Receptor Binding Assay-A (ERBA-A), intact cell binding of [125I]-ET-1; settings: [125I]-ET-1 25 pM
Experimental: The compounds of Formula I are valuable antagonists of endothelin. […] Thus, the compounds of Formula I were tested for their ability to inhibit [^125 I]-ET-1([^125 I]-Endothelin-1) binding in a receptor assay according to the following procedures: Endothelin Receptor Binding Assay-A (ERBA-A) Intact Cell Binding of [^125 I]-ET-1 The cells used were rabbit renal artery vascular smooth muscle cells grown in a 48-well dish (1 cm^2) (confluent cells). The assay buffer was a medium 199 containing Hanks salts and 25 mM Hepes buffer (Gibco 380-2350AJ), supplemented with penicillin/streptomycin/fungizone (0.5%) and bovine serum albumin (1 mg/mL). Amersham radioiodinated endothelin-1 [^125 I]-ET-1 was used at final concentration of 20,000 cpm/0.25 mL (25 pM). […] Second, remove the assay buffers, place the dish on ice, and add 150 μL of cold assay buffer described above to each well. Third, add […] each of cold [^125 I]-ET-1 and competing ligand to the solution (at the same time if possible). Next, place dish in a 37° C. water bath for about 2 hours and gently agitate the dish every 15 minutes. Discard the radioactive incubation mixture in the sink and wash wells 3 times with 1 mL of cold phosphate buffered saline. Last, add […] of 0.25 molar sodium hydroxide, agitate for 1 hour on a rotator, and then transfer the sodium hydroxide extract to gamma counting tubes and count the radioactivity.

[2] = molecular target: T1, endothelin receptor (ETB), rat cerebellar membranes (Rattus norvegicus, UniProt P21451); experiment: Endothelin Receptor Binding Assay-B (ERBA-B), [125I]-ET-1 binding in rat cerebellar membranes; settings: [125I]-ET-1 25 pM, read-out: ERRA-B IC50
T1 construct: thaw one aliquot of frozen rat cerebellar membranes (2 mg protein in 0.5 mL); from tissue; host or cells: rat cerebellum (membranes)
T1 sequence (P21451 27-442): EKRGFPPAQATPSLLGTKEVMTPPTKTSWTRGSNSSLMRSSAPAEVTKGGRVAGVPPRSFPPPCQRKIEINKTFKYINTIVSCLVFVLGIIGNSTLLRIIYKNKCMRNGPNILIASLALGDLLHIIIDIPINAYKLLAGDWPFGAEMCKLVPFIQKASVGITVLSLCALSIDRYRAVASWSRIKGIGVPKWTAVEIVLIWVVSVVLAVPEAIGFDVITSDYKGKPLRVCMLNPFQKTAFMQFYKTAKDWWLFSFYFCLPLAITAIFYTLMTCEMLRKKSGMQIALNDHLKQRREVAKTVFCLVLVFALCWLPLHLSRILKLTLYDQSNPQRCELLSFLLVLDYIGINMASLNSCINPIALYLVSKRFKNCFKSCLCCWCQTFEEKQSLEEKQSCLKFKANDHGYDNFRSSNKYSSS
Experimental: Endothelin Receptor Binding Assay-B (ERBA-B) [^125 I]-ET-1 Binding in Rat Cerebellar Membranes
The tissue is made up of 20 mM tris(hydroxymethyl)aminomethane hydrochloride (Trizma) buffer, 2 mM ethylenediaminetetra acetate, 100 μM phenylmethylsulfonyl fluoride.
First, thaw one aliquot of frozen rat cerebellar membranes (2 mg protein in 0.5 mL). Next, add 0.5 mL membrane aliquot to 4.5 mL cold tissue buffer, polytron at 7,500 revolutions per minute for 10 seconds. Finally, dilute tissue suspension 1/100 (0.1 mL suspension+9.9 mL tissue buffer), polytron again, and place ice.
Medium 199 with Hank's salts plus 25 mM Hepes+1 mg/mL bovine serum albumin.
Amersham [^125 I]-ET-1 (aliquots of 2×10^6 cpm per […] aliquot of [^125 I]-ET-1 with 5.2 mL dilution buffer, place on ice until use (final concentration will be 20,000 cpm per tube, or 25 pM).
Add 50 μL each of cold [^125 ]-ET-1 and competing ligand to tubes on ice. Mix in 150 μL of tissue to each tube, vortex briefly, then tap to force all liquids to bottom (total assay volume=250 μL). Then place the tubes in a 37° C. water bath for 2 hours.
Add 2.5 mL cold wash buffer (50 mM Trizma buffer) to each tube, filter, and then wash tube with additional 2.5 mL wash buffer and add to filter. Finally, wash filters with an additional 2.5 mL of cold wash buffer.
Count filters for radioactivity in gamma counter.

[3] = tested on: ETA (rabbit femoral artery); settings: ET-1 as agonist, endothelium-denuded rings
Source text: (§1) In Vitro Antagonism of ET-1 Stimulated Vasoconstriction in the Rabbit Femoral Artery (ETA) and Sarafotoxin 6c Stimulated Vasoconstriction in the Rabbit Pulmonary Artery (ETB)
(§2) Male New Zealand rabbits were killed by cervical dislocation and exsanguination. Femoral and pulmonary arteries were isolated, cleaned of connective tissue, and cut into 4-mm rings. The endothelium was denuded by placing the rings over hypodermic tubing (32 guage for femoral rings and 28 guage for pulmonary rings, Small Parts, Inc, Miami, Fla.) and gently rolling them. Denuded rings were mounted in 20 mL organ baths containing Krebs-bicarbonate buffer (composition in mM: NaCl, 118.2; NaHCO3, 24.8; KCl, 4.6; MgSO4 7.H2 O, 1.2; KH2 PO4, 1.2; CaCl2.2H2 O; Ca--Na2 EDTA, 0.026; dextrose, 10.0), that was maintained at 37° C. and gassed continuously with 5% CO2 in oxygen (pH 7.4). Resting tension was adjusted to 3.0 g for femoral and 4.0 g pulmonary arteries; the rings were left for 90 minutes to equilibrate.

[4] = molecular target: T2, rat recombinant ETB receptor (CHO cells) (Rattus norvegicus, UniProt P21451); experiment: Inhibition of ET-1 stimulated arachidonic acid release (AAR-B); type: cell-based; settings: ET-1 0.3 nM
T2 construct: expressed in transfected cells; host or cells: CHO cells
T2 sequence (P21451 27-442): T1 sequence (P21451 27-442)
Experimental: (§3) In Vitro Inhibition of ET-1 Stimulated Arachidonic Acid Release in Cultured Rabbit Vascular Smooth Muscle Cells (AAR-A) or CHO Cells Expressing Rat Recombinant ETB Receptor (AAR-B) by Compounds of Formula I
(§4) Antagonist activity is measured by the ability of added compounds to reduce endothelin-stimulated arachidonic acid release in cultured vascular smooth muscle cells as arachidonic acid release (AAR). [^3 H] Arachidonic Acid Loading Media (LM) is DME/F12+0.5% fetal calf serum (FCS)×0.25 mCi/mL [^3 H] arachidonic acid (Amersham). Confluent monolayers of cultured rabbit renal artery vascular smooth muscle cells (AAR-A) or CHO cells expressing rat recombinant ETB receptor (AAR-B) were incubated in 0.5 mL of the LM over 18 hours, at 37° C., in 5% CO2. The LM was aspirated and the cells were washed once with the assay buffer (Hank's balanced salt solution [BSS]+10 mM HEPES+fatty acid-free BSA (1 mg/mL)), and incubated for 5 minutes with 1 mL of the prewarmed assay buffer. This solution was aspirated, followed by an additional 1 mL of prewarmed assay buffer, and further incubated for another 5 minutes. A final 5-minute incubation was carried out in a similar manner. The same procedure was repeated with the inclusion of 10 μL of the test compound (1 nM to 1 μM) and 10 μL ET-1 (0.3 nM) and the incubation was extended for 30 minutes. This solution was then collected, […] of scintillation cocktail was added, and the amount of [^3 H] arachidonic acid was determined in a liquid scintillation counter.

[5] = tested on: endothelin receptor, cultured rabbit renal artery vascular smooth muscle cells; experiment: Inhibition of ET-1 stimulated arachidonic acid release (AAR-A); type: cell-based; settings: ET-1 0.3 nM
Experimental: as §3, §4

[6] = molecular target: ETB (rabbit pulmonary artery) (Oryctolagus cuniculus, UniProt Q9N0W7)
Sequence of ETB (rabbit pulmonary artery) (Q9N0W7 27-441): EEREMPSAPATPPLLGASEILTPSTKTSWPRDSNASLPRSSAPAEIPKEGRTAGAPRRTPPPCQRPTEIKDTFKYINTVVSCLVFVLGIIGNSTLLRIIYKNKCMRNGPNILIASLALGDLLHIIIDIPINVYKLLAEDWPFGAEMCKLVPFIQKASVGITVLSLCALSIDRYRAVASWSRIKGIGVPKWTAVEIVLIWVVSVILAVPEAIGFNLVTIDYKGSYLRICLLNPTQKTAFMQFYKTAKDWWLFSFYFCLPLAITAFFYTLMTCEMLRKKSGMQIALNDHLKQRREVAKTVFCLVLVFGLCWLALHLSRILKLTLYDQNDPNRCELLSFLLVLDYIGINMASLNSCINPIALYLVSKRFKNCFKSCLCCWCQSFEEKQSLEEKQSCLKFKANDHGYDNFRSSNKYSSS
Source text: as §1, §2

[7] = tested on: CaCO-2 cells (human colon adenocarcinoma cell line); type: in vitro ADME
Experimental: For experiments, the cells were counted, then diluted to 2.5×10^5 cells/mL for planting (400 μL per well) onto Snapwell culture membranes with 2.5 mL media in the lower chamber. Media in the […] was changed every 2 to 3 days. Cells used for this series of experiments were between passage 38 and 91. 2-[N-Morpholino]ethanesulfonic acid (MES)+25 mM glucose was used as incubation buffer for all the experiments and all incubation solutions were prepared to an osmotic pressure of 280 to 300 milliosmoles. The concentration of the endothelin antagonist being studied (for all experiments) was 100 μM and another endothelin antagonist with similar HPLC characteristics (retention time 2-3 minutes from the ET antagonist being studied, and similar chemical characteristics) was used at a concentration of 25 μM as an internal standard to compensate for any injection error. Prior to the start of the experiment, the transepithelial electrical resistance (TEER) was measured for each Snapwell (in media) at three points of the membrane. […] The membranes were washed by swirling in 0.9% normal saline and mounted in the pretreated diffusion chambers [0.1 mg/mL human serum albumin for 1 to 2 hours at 37° C. with O2 bubbling followed by air drying at 37° C. overnight, then with 4.5 to 5.0 mL dosing solution (MES+glucose+^14 C-PEG-4000 (5000 dpm/50 μL)+drug) for 5 minutes and 4.5 to 5.0 mL MES+glucose rinse just before the experiment.] The apical (donor) side was filled with 4.5 to 5.0 mL dosing solution, the basolateral (receiver) side with MES+glucose. Samples were removed from the donor and receiver compartments over the course of the experiment and analyzed for ^14 C-PEG 4000 (cell membrane integrity) and endothelin content.

[8] = molecular target: T3, ETB (porcine pulmonary arteries) (Sus scrofa, UniProt P35463); settings: isolated, endothelium-intact porcine pulmonary arteries; cited from earlier work
T3 construct: host or cells: isolated, endothelium-intact porcine pulmonary arteries
T3 sequence (P35463 27-443): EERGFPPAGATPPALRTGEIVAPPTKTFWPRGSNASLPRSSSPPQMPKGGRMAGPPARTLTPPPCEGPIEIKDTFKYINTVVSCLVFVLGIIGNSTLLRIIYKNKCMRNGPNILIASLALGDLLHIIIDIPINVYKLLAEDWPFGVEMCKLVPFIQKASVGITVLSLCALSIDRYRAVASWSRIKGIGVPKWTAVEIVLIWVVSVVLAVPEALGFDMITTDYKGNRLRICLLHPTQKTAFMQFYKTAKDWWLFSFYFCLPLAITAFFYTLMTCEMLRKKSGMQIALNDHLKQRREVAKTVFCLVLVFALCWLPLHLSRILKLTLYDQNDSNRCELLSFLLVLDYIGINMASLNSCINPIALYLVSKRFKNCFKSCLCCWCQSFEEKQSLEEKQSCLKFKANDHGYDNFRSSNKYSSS

Molecule	IC50 [1] [µM]	IC50 [2] [µM]	pA2 Femoral [3]	IC50 [4] [µM]	IC50 [5] [µM]	Kb [6] [µM]	absorption in the gut suggested by CaCO-2 values [7]	effect on vascular tone [8]
CC[C@H](C)[C@H](NC(=O)[C@H](CC(=O)O)NC(=O)[C@H](CC(C)C)NC(=O)[C@H](N)C1c2ccccc2CCc2ccccc21)C(=O)N[C@H](C(=O)N[C@@H](Cc1c[nH]c2ccccc12)C(=O)O)[C@@H](C)CC [Example 2, D-Bhg-Leu-Asp-Ile-Ile-Trp] (HELM PEPTIDE1{[N[C@@H](C(=O)[*:2])C1c2ccccc2CCc2ccccc21].L.D.I.I.W}$$$$V2.0)	0.45	2.1	5.7	9.6	0.1	–	–	–
CC[C@H](C)[C@H](NC(=O)[C@H](CC(=O)O)NC(=O)[C@H](CC(C)C)NC(=O)[C@H](NC(C)=O)C1c2ccccc2C=Cc2ccccc21)C(=O)N[C@H](C(=O)N[C@@H](Cc1c[nH]c2ccccc12)C(=O)O)[C@@H](C)CC [Example 6, Ac-D-Bheg-Leu-Asp-Ile-Ile-Trp] (HELM PEPTIDE1{[ac].[O=C([C@H](N[*:1])C1c2ccccc2C=Cc2ccccc21)[*:2]].L.D.I.I.W}$$$$V2.0)	0.005	0.019	6.8	0.017	0.003	0.0398	–	–
CC[C@H](C)[C@H](NC(=O)[C@H](CC(=O)O)NC(=O)[C@H](CCCN)NC(=O)[C@H](NC(C)=O)C1c2ccccc2CCc2ccccc21)C(=O)N[C@H](C(=O)N[C@@H](Cc1c[nH]c2ccccc12)C(=O)O)[C@@H](C)CC [Example 7, Ac-D-Bhg-Orn-Asp-Ile-Ile-Trp] (HELM PEPTIDE1{[ac].[O=C([C@H](N[*:1])C1c2ccccc2CCc2ccccc21)[*:2]].[Orn].D.I.I.W}$$$$V2.0)	0.022	1.5	6.5	–	0.037	–	–	–
CC[C@H](C)[C@H](NC(=O)[C@H](CC(=O)O)NC(=O)[C@H](CCC(=O)O)NC(=O)[C@H](NC(C)=O)C1c2ccccc2CCc2ccccc21)C(=O)N[C@H](C(=O)N[C@@H](Cc1c[nH]c2ccccc12)C(=O)O)[C@@H](C)CC [Example 8, Ac-D-Bhg-Glu-Asp-Ile-Ile-Trp] (HELM PEPTIDE1{[ac].[O=C([C@H](N[*:1])C1c2ccccc2CCc2ccccc21)[*:2]].E.D.I.I.W}$$$$V2.0)	0.0055	0.022	6.5	0.027	0.007	0.1	–	–
CC[C@H](C)[C@H](NC(=O)[C@@H](NC(=O)[C@@H](CC(=O)O)NC(=O)[C@H](CC(C)C)NC(=O)[C@H](NC(C)=O)C1c2ccccc2CCc2ccccc21)[C@@H](C)CC)C(=O)N[C@@H](Cc1c[nH]c2ccccc12)C(=O)O [Example 16, Ac-D-Bhg-Leu-D-Asp-Ile-Ile-Trp] (HELM PEPTIDE1{[ac].[O=C([C@H](N[*:1])C1c2ccccc2CCc2ccccc21)[*:2]].L.[dD].I.I.W}$$$$V2.0)	0.14	0.4	–	–	–	–	5-10%	–
ET[1,3,11,15-Ala]: linear ET analog, reported selective ETB agonist (ASASSLMDKEAVYFAHLDIIW; Endothelin-1; UniProt P05305 53-73, looked up, variant C1A C3A C11A C15A)	–	–	–	–	–	–	–	caused vasorelaxation
ET[6-21, 1,3,11,15-Ala]	–	–	–	–	–	–	–	caused vasorelaxation
ET[8-21,11,15-Ala]	–	–	–	–	–	–	–	caused vasorelaxation
N-Acetyl-ET[10-21,11,15-Ala]	–	–	–	–	–	–	–	caused vasorelaxation
